According to US20180200279A1, “INHIBITION OF HSV-1-ASSOCIATED CORNEAL NEOVASCULARIZATION USING INHIBITORS OF CYCLIN-DEPENDENT KINASE 9” (XAVIER UNIVERSITY OF LOUISIANA, priority 2014, published 2018):

Experiments:
[1] = test system: HSV-1 17syn+ induced corneal neovascularization; experiment: HSV-1 corneal neovascularization mouse model, slit-lamp examination score; assay type: in vivo, Balb/c mice; conditions: day 25 post infection; drops 4 times daily for 14 days; 1% TFT, 0.01% flavopiridol, 0.1% DRB; n=10
Description: Corneal neovascularization was determined in a masked fashion by slit lamp analysis on days 2, 4, 7, 9, 11, 14, 18, and 25 post-infection (PI) with 5×10^5 PFU/eye of HSV-1 17syn+ using the formula A=(C×0.4×L×n)/2 where C=clock hours of neovascularization; 30° arc is 1 (360° circle with a total of 12); L is the length of the longest neovessel, and A is the area of neovascularization.
All experimental procedures were performed in accordance with the ARVO Resolution for the Use of Animals in Ophthalmic and Vision Research and were approved by the Xavier University Animal Care and Use Committee. Female 20 g Balb/c mice were obtained from Charles River Laboratories. Mice were allowed to equilibrate to their surroundings for 2 weeks and then were anesthetized by intramuscular administration of xylazine (6.6 mg/kg of body weight) and ketamine (100 mg/kg of body weight). The corneas were mildly scarified in a 2×2 cross-hatch pattern and each cornea was inoculated with 5×10^5 PFU of strain HSV 17syn+. […] Average neovascularization/eye was scored using the formula A=(C×0.4×L×π)/2 where C=clock hours of neovascularization; 30° arc is 1 (360° circle with a total of 12); L is the length of the longest neovessel, and A is the area of neovascularization. Students scored (by eye) the animals on the days indicated in a masked fashion using the slit-lamp, and images representative of each group were taken. Clinical scores based on epiphora, inflammation and discharge were calculated where 0=no manifestations, +1=slight manifestations, +2=moderate manifestations, and +3=severe manifestations. […] Ex ovo chick embryo chorioallantoic membrane collagen angiogenesis assays were performed using methods as previously described (Deryugina E I and Quigley J P. Chapter 2. Chick embryo chorioallantoic membrane models to quantify angiogenesis induced by inflammatory and tumor cells or purified effector molecules. Methods Enzymol. 444:21-41. 2008). […]
This was assessed with the dose and frequency that was used in the chemotherapeutic study of HSV-1 corneal neovascularization. […]

[2] = test system: HSV-1 17syn+ ocular infection; experiment: HSV-1 ocular infection mouse model, H&E histology of eyes (leukocytic infiltration, peripheral neovascularization); assay type: in vivo, Balb/c mice; conditions: day 25 PI
Description: Histological score (0-1) was calculated based on leukocytic infiltration and peripheral neovascularization of hematoxylin & eosin (H&E) stained slides of mouse eyes on day 25 PI.
All experimental procedures were performed in accordance with the ARVO Resolution for the Use of Animals in Ophthalmic and Vision Research and were approved by the Xavier University Animal Care and Use Committee. Female 20 g Balb/c mice were obtained from Charles River Laboratories. Mice were allowed to equilibrate to their surroundings for 2 weeks and then were anesthetized by intramuscular administration of xylazine (6.6 mg/kg of body weight) and ketamine (100 mg/kg of body weight). The corneas were mildly scarified in a 2×2 cross-hatch pattern and each cornea was inoculated with 5×10^5 PFU of strain HSV 17syn+. […] DNA was collected by swabbing the eyes with filter paper, and the eyes were examined with a slit-lamp on PI days 2, 4, 7, 9, 11, 14, 18 and 25. Average neovascularization/eye was scored using the formula A=(C×0.4×L×π)/2 where C=clock hours of neovascularization; 30° arc is 1 (360° circle with a total of 12); L is the length of the longest neovessel, and A is the area of neovascularization. Students scored (by eye) the animals on the days indicated in a masked fashion using the slit-lamp, and images representative of each group were taken. Clinical scores based on epiphora, inflammation and discharge were calculated where 0=no manifestations, +1=slight manifestations, +2=moderate manifestations, and +3=severe manifestations. Mice were sacrificed with CO2 on day 25 post-infection, and eyes were harvested, sectioned, stained with hematoxylin and eosin (H&E) for histological analysis based on peripheral neovascularization and leukocytic infiltration where 0=clear eyes, 0.5=either peripheral neovascularization or leukocytic infiltration, and 1=both peripheral neovascularization and leukocytic infiltration. Ex ovo chick embryo chorioallantoic membrane collagen angiogenesis assays were performed using methods as previously described (Deryugina E I and Quigley J P. Chapter 2. Chick embryo chorioallantoic membrane models to quantify angiogenesis induced by inflammatory and tumor cells or purified effector molecules. Methods Enzymol. 444:21-41. 2008). Briefly, fertilized embryos (Charles River Laboratories, Charleston, S.C.) were incubated at 37.5° C. for 3 days, removed from their shell using a Dremel tool and placed into a covered weighing boat for 7 further days of incubation. […] Four collagen onplants were added per egg on at least 3 separate eggs. After three additional days of incubation, images were taken of each plug using a mini-Vid camera (LW Scientific; Lawrenceville, Ga.) and quantified in a masked fashion based on the percentage of grids that were positive for newly formed blood vessels.
To confirm the results in FIGS. 1A and 1B, sections of one cornea from each mouse was sectioned, stained with H&E and analyzed for leukocytic infiltrate and peripheral neovascularization of the cornea.

HUVEC [3] = experiment: Endothelial cell transwell migration assay; assay type: cell-based, human; conditions: 16 hours
Description: Migration/invasion assays were performed using 24-well, 8-μm pore size BD Biocoat Matrigel migration chambers according to the manufacturer's instructions (BD Biosciences, San Jose, Calif.). […] Cells were allowed to migrate for 16 hours at 37° C. Following incubation, cotton swabs were used to remove the cells on the top surface of the membrane, and cells on the bottom side of the membrane were fixed with 4% formaldehyde for 30 min, washed 3-5 times with PBS, and then stained with 10 μM Calcein AM (migration) or 10 μM Celltracker green-labeled (invasion). Migrating or invading cells from three repeats in two independent experiments were then counted using an inverted microscope. Data are expressed as mean percent migration and mean percent invading cells compared with untreated cells±SEM.
Cell migration induced by chemoattractant angiogenic factors such as bFGF and VEGF is an important step in the angiogenic process. […] Data presented as percent fluorescence normalized to control untreated cells (100% migration).

HUVEC [4] = experiment: In vitro tubule formation assay; assay type: cell-based, human; conditions: 25 ng/mL bFGF and VEGF
Description: The number of circular tubular structures formed by HUVEC under conditions of serum starvation followed by treatment with 25 ng/mL bFGF and VEGF and with 0-200 nM FP were quantitatively analyzed. Manual counting at low power fields was used to quantitate tubular structures and percentage of inhibition was expressed using VEGF control wells as 100%.
Growth factor-reduced Geltrex (Life Technologies, Grand Island, N.Y.) was thawed overnight on ice. Each well of 96-well plated was coated at […] with 50 μL Geltrex and incubated at 37° C. for 30 min. […] After 12-16 hours, tubule formation was assessed with an inverted photomicroscope and the images were photographed using Olympus U-RLF-T microscope. Manual counting at low power fields was used to quantitate tubular structures and percentage of inhibition was expressed using VEGF control wells as 100%. Results represent one triplicate repeat of three independent experiments with similar results.
Following migration from the vessel of origin and invasion through the ECM, ECs form capillary tubules. […] The number of circular nodes surrounded by tubular structures was quantitatively analyzed in a masked fashion.

[5] = test system: chick embryo chorioallantoic membrane; experiment: Ex ovo chick chorioallantoic membrane (CAM) collagen onplant angiogenesis assay; assay type: in vivo; conditions: 100 nM flavopiridol in bFGF/VEGF-containing collagen plugs; 3 days
Description: After 3 days, CAMs were photographed, and angiogenesis was quantified by counting the number of grids positive for new blood vessel growth in a blinded manner. Results are expressed as number of grids positive for blood vessels and as percent positive grids.
Female 20 g Balb/c mice were obtained from Charles River Laboratories. Mice were allowed to equilibrate to their surroundings for 2 weeks and then were anesthetized by intramuscular administration of xylazine (6.6 mg/kg of body weight) and ketamine (100 mg/kg of body weight). The corneas were mildly scarified in a 2×2 cross-hatch pattern and each cornea was inoculated with 5×10^5 PFU of strain HSV 17syn+. […] DNA was collected by swabbing the eyes with filter paper, and the eyes were examined with a slit-lamp on PI days 2, 4, 7, 9, 11, 14, 18 and 25. Average neovascularization/eye was scored using the formula A=(C×0.4×L×π)/2 where C=clock hours of neovascularization; 30° arc is 1 (360° circle with a total of 12); L is the length of the longest neovessel, and A is the area of neovascularization. Students scored (by eye) the animals on the days indicated in a masked fashion using the slit-lamp, and images representative of each group were taken. Clinical scores based on epiphora, inflammation and discharge were calculated where 0=no manifestations, +1=slight manifestations, +2=moderate manifestations, and +3=severe manifestations. […]

HUVEC [6] = experiment: Global transcription, BrU incorporation into RNA by flow cytometry; assay type: cell-based, human; conditions: serum-starved, PMA-treated HUVEC
Description: Vein endothelial cells (VEC) were activated with phorbol myristate acetate (PMA) and incubated with membrane-permeable 5-bromouridine (BrU) that incorporates into RNA transcribed during the incubation period. A commercially available antibody against 5-bromo-deoxy-uridine was then used to quantify BrU-containing RNA. Cells were analyzed by immunofluorescence staining (not shown) and by flow cytometry for the presence of incorporated BrU to quantify the level of global transcription. […] Additional controls include no antibody and no BrU.
To determine whether FP blocked transcription globally at concentrations at which it reduces angiogenesis in vitro, HUVEC were activated with phorbol myristate acetate (PMA) and incubated with membrane-permeable 5-bromouridine (BrU) that incorporates into RNA transcribed during the incubation period. A commercially available antibody against 5-bromo-deoxy-uridine was then used to quantify BrU-containing RNA. Cells were analyzed by immunofluorescence staining (not shown) and by flow cytometry for the presence of incorporated BrU to quantify the level of global transcription.
Additional controls include no antibody (-Ab) and no BrU (-BrU) (FIG. 5A).

[7] = Ocular safety and tolerability of the formulation, mouse eyes; assay type: in vivo; conditions: dose and frequency of the HSV-1 corneal neovascularization study
Description: This was assessed with the dose and frequency that was used in the chemotherapeutic study of HSV-1 corneal neovascularization. FIG. 1A presents the results of slit-lamp examination (SLE) scores of the corneas of the four treatment groups beginning on post-inoculation day 2 and continuing to 25 days following infection.

CN1CC[C@H](c2c(O)cc(O)c3c(=O)cc(-c4ccccc4Cl)oc23)[C@H](O)C1 [flavopiridol]
slit-lamp examination (SLE) score of corneal neovascularization [1]: 0.039±0.176 | mouse eyes exhibiting corneal neovascularization ([2]; H&E sections): 0% | mouse eyes exhibiting leukocytic infiltration ([2]; H&E sections): 0% | histological score (scale 0-1) for leukocytic infiltrate and peripheral neovascularization ([2]; H&E stained corneal sections): 0.125±0.125 | percent migration normalized to untreated control cells (100%) (HUVEC [3]; 100 nM flavopiridol): 74.99%±2.35 | percent migration normalized to untreated control cells (100%) (HUVEC [3]; 150 nM flavopiridol): 25.08±1.79% | tubular structures, VEGF control wells as 100% (HUVEC [4]; 50 nM flavopiridol, not statistically different from control): 114.7±7.17 | tubular structures, VEGF control wells as 100% (HUVEC [4]; 100 nM flavopiridol, not statistically different from control): 97.67±5.36 | tubular structures, VEGF control wells as 100% (HUVEC [4]; 150 nM flavopiridol, significantly reduced): 55.33±9.70 | angiogenesis: grids positive for newly formed blood vessels [5]: 14.33±2.10 | BrU incorporation into RNA (total cellular transcription) (HUVEC [6]; 50 nM-300 nM FP): only slightly reduced | BrU incorporation into RNA (total cellular transcription) (HUVEC [6]; 600 nM-1 μM FP): significantly (p<0.05 compared with untreated cells) reduced BrU incorporation into RNA | safety and tolerability of the formulation in the eye [7]: safe and well-tolerated
